Results on 30 compounds are retold here after US9040530B2, “1,2,4-triazine-6-carboxamide kinase inhibitors” (Portola Pharmaceuticals, Inc., priority 2012, dated 2015).

This experiment deals with T1, full length active recombinant SYK enzyme (Homo sapiens, UniProt P43405).
T1 construct: full length active recombinant SYK enzyme (Millipore, Calif.); purchased Millipore
The experiment in a line: Inhibition of Syk tyrosine phosphorylation activity (LANCE TR-FRET kinase assay). Format: biochemical. Particulars: 1 nM active SYK enzyme, 550 nM SYK-substrate, 100 μM ATP, 1 hour at room temperature. (In TR-FRET formats the signal depends on donor and acceptor labels being close together.)
Take `NC(=O)c1nnc(N[C@@H]2CCCC(F)(F)[C@@H]2N)nc1Nc1ccc2c(c1)CCOC2` [Example 214, 3-(((1R,2R)-2-amino-3,3-difluorocyclohexyl)amino)-5-(isochroman-6-ylamino)-1,2,4-triazine-6-carboxamide]: the IC50 (usually the midpoint of a concentration-inhibition curve) was 10 to 100 nM. As to `CC[C@@H](Nc1nnc(C(N)=O)c(Nc2cccc(-n3nccn3)c2)n1)C(N)=O` [Example 86, (R)-5-((3-(2H-1,2,3-triazol-2-yl)phenyl)amino)-3-((1-amino-1-oxobutan-2-yl)amino)-1,2,4-triazine-6-carboxamide], the half-inhibitory concentration (IC50) was in the range of 100 to 1000 nM. Turning to `NC(=O)c1nnc(N[C@@H]2CCCC(F)(F)[C@@H]2N)nc1Nc1ccc2c(c1)CCCC2` [Example 237, 3-(((1R,2R)-2-amino-3,3-difluorocyclohexyl)amino)-5-((5,6,7,8-tetrahydronaphthalen-2-yl)amino)-1,2,4-triazine-6-carboxamide], the IC50 was 10 to 100 nM.

On to `CC[C@@H](Nc1nnc(C(N)=O)c(Nc2cc(C)cc(F)c2)n1)C(N)=O` [Example 197, (R)-3-((1-amino-1-oxobutan-2-yl)amino)-5-((3-fluoro-5-methylphenyl)amino)-1,2,4-triazine-6-carboxamide], for which the half-inhibitory concentration (IC50) was 10 to 100 nM. As to `NC(=O)c1nnc(N[C@@H]2CCCC[C@@H]2N)nc1Nc1cnc2cccnc2c1` [Example 258, 5-((1,5-naphthyridin-3-yl)amino)-3-(((1R,2S)-2-aminocyclohexyl)amino)-1,2,4-triazine-6-carboxamide], the half-maximal inhibitory concentration (IC50) was in the range of 10 to 100 nM. Turning to `Cn1ccc2cc(Nc3nc(N[C@H]4CN[C@@H](CO)C4)nnc3C(N)=O)cnc21` [Example 153, 3-(((3R,5R)-5-(hydroxymethyl)pyrrolidin-3-yl)amino)-5-((1-methyl-1H-pyrrolo[2,3-b]pyridin-5-yl)amino)-1,2,4-triazine-6-carboxamide], the IC50 was 10 to 100 nM. Then `Cc1cc(F)cc(Nc2nc(N[C@@H]3CCCC(F)(F)[C@@H]3N)nnc2C(N)=O)c1` [Example 202, 3-(((1R,2R)-2-amino-3,3-difluorocyclohexyl)amino)-5-((3-fluoro-5-methylphenyl)amino)-1,2,4-triazine-6-carboxamide], with 10 to 100 nM; and `NC(=O)c1nnc(N[C@@H]2CCCC[C@@H]2N)nc1Nc1ccc2c(ccc[n+]2[O-])c1` [Example 48, 6-((3-(((1R,2S)-2-aminocyclohexyl)amino)-6-carbamoyl-1,2,4-triazin-5-yl)amino)quinoline 1-oxide], with 10 to 100 nM; and `Cc1cc(Nc2nc(N[C@@H]3CCCC(F)(F)[C@@H]3N)nnc2C(N)=O)ccc1Cl` [Example 218, 3-(((1R,2R)-2-amino-3,3-difluorocyclohexyl)amino)-5-((4-chloro-3-methylphenyl)amino)-1,2,4-triazine-6-carboxamide], with 10 to 100 nM. For the compound `N#Cc1ccc(Nc2nc(N[C@@H]3CCCC[C@@H]3N)nnc2C(N)=O)cc1F` [Example 116, 3-(((1R,2S)-2-aminocyclohexyl)amino)-5-((4-cyano-3-fluorophenyl)amino)-1,2,4-triazine-6-carboxamide], the IC50 was 10 to 100 nM. On to `CC[C@@H](Nc1nnc(C(N)=O)c(Nc2cccc(C)c2)n1)C(N)=O` [Example 13, (R)-3-((1-amino-1-oxobutan-2-yl)amino)-5-(m-tolylamino)-1,2,4-triazine-6-carboxamide], for which the IC50 is 10 to 100 nM. In the case of `NC(=O)c1nnc(N[C@@H]2CCCC[C@@H]2N)nc1Nc1ccc(C(=O)N2CCC2)nc1` [Example 66, 3-(((1R,2S)-2-aminocyclohexyl)amino)-5-((6-(azetidine-1-carbonyl)pyridin-3-yl)amino)-1,2,4-triazine-6-carboxamide], the half-maximal inhibitory concentration (IC50) fell in the range of 10 to 100 nM. Take `CC[C@@H](Nc1nnc(C(N)=O)c(Nc2cnc3c(ccn3C)c2)n1)C(N)=O` [Example 152, (R)-3-((1-amino-1-oxobutan-2-yl)amino)-5-((1-methyl-1H-pyrrolo[2,3-b]pyridin-5-yl)amino)-1,2,4-triazine-6-carboxamide]: the IC50 lay in the range of 10 to 100 nM. In the case of `NC(=O)c1nnc(N[C@@H]2CCCC[C@@H]2N)nc1Nc1ccc2ncsc2c1` [Example 42, 3-(((1R,2S)-2-aminocyclohexyl)amino)-5-(benzo[d]thiazol-6-ylamino)-1,2,4-triazine-6-carboxamide], the IC50 fell in the range of 1 to 10 nM. Take `NC(=O)c1nnc(N[C@@H]2CCCC(F)(F)[C@@H]2N)nc1Nc1ccc2c(c1)COCC2` [Example 228, 3-(((1R,2R)-2-amino-3,3-difluorocyclohexyl)amino)-5-(isochroman-7-ylamino)-1,2,4-triazine-6-carboxamide]: the IC50 lay within 1 to 10 nM. Then `NC(=O)c1nnc(N[C@@H]2CCOC[C@@H]2N)nc1Nc1ccccc1` [Example 95, 3-(((3R,4R)-3-aminotetrahydro-2H-pyran-4-yl)amino)-5-(phenylamino)-1,2,4-triazine-6-carboxamide], with 10 to 100 nM. With `Cc1ccc(Nc2nc(N[C@H](CC(F)F)C(N)=O)nnc2C(N)=O)cc1` [Example 143, (R)-3-((1-amino-4,4-difluoro-1-oxobutan-2-yl)amino)-5-(p-tolylamino)-1,2,4-triazine-6-carboxamide], the 50% inhibitory concentration (IC50) is 10 to 100 nM. On to `CC[C@@H](Nc1nnc(C(N)=O)c(Nc2cnc3ccccc3c2)n1)C(N)=O` [Example 59, (R)-3-((1-amino-1-oxobutan-2-yl)amino)-5-(quinolin-3-ylamino)-1,2,4-triazine-6-carboxamide], for which the IC50 fell in the range of 10 to 100 nM. Then `N#Cc1ccc(Nc2nc(N[C@@H]3CCCC[C@@H]3N)nnc2C(N)=O)cc1` [Example 75, 3-(((1R,2S)-2-aminocyclohexyl)amino)-5-((4-cyanophenyl)amino)-1,2,4-triazine-6-carboxamide], with 10 to 100 nM; and `NC(=O)c1nnc(N[C@@H]2CCCC(F)(F)[C@@H]2N)nc1Nc1ccc(-c2ncco2)cc1` [Example 132, 3-(((1R,2R)-2-amino-3,3-difluorocyclohexyl)amino)-5-((4-(oxazol-2-yl)phenyl)amino)-1,2,4-triazine-6-carboxamide], with 10 to 100 nM; and `NC(=O)c1nnc(N[C@@H]2CCCC[C@@H]2N)nc1Nc1cccc(Cl)c1` [Example 23, 3-(((1R,2S)-2-aminocyclohexyl)amino)-5-((3-chlorophenyl)amino)-1,2,4-triazine-6-carboxamide], with 1 to 10 nM. Then `NC(=O)c1nnc(N[C@@H]2CCCC[C@@H]2N)nc1Nc1cccc(C(F)(F)F)c1` [Example 170, 3-(((1R,2S)-2-aminocyclohexyl)amino)-5-((3-(trifluoromethyl)phenyl)amino)-1,2,4-triazine-6-carboxamide], with 1 to 10 nM; and `CC[C@@H](Nc1nnc(C(N)=O)c(Nc2ccc3cnn(C)c3c2)n1)C(N)=O` [Example 180, (R)-3-((1-amino-1-oxobutan-2-yl)amino)-5-((1-methyl-1H-indazol-6-yl)amino)-1,2,4-triazine-6-carboxamide], with 1 to 10 nM; and `Cn1ncc2c(Nc3nc(N[C@@H]4CCCC(F)(F)[C@@H]4N)nnc3C(N)=O)cccc21` [Example 117, 3-(((1R,2R)-2-amino-3,3-difluorocyclohexyl)amino)-5-((1-methyl-1H-indazol-4-yl)amino)-1,2,4-triazine-6-carboxamide], with 10 to 100 nM.

Take `CC(C)C[C@@H](Nc1nnc(C(N)=O)c(Nc2ccc(Cl)cc2)n1)C(N)=O` [Example 248, (R)-3-((1-amino-4-methyl-1-oxopentan-2-yl)amino)-5-((4-chlorophenyl)amino)-1,2,4-triazine-6-carboxamide]: the concentration for half-maximal inhibition (IC50) is 10 to 100 nM.

Take `COc1ccc(Nc2nc(N[C@@H]3CCCC[C@@H]3N)nnc2C(N)=O)cc1C(F)(F)F` [Example 114, 3-(((1R,2S)-2-aminocyclohexyl)amino)-5-((4-methoxy-3-(trifluoromethyl)phenyl)amino)-1,2,4-triazine-6-carboxamide]: the 50% inhibitory concentration (IC50) lay in the range of 1 to 10 nM. The same measure for `N#Cc1ccccc1Nc1nc(N[C@@H]2CCCC[C@@H]2N)nnc1C(N)=O` [Example 115, 3-(((1R,2S)-2-aminocyclohexyl)amino)-5-((2-cyanophenyl)amino)-1,2,4-triazine-6-carboxamide]: 100 to 1000 nM. With `Cc1cc(Nc2nc(N[C@H](CC3CC3)C(N)=O)nnc2C(N)=O)sn1` [Example 141, (R)-3-((1-amino-3-cyclopropyl-1-oxopropan-2-yl)amino)-5-((3-methylisothiazol-5-yl)amino)-1,2,4-triazine-6-carboxamide], the IC50 was in the range of 10 to 100 nM.

For `NC(=O)c1nnc(N[C@@H]2CCOC[C@@H]2N)nc1Nc1cccc(-c2ncco2)c1` [Example 252, 3-(((3R,4R)-3-aminotetrahydro-2H-pyran-4-yl)amino)-5-((3-(oxazol-2-yl)phenyl)amino)-1,2,4-triazine-6-carboxamide], the IC50 was 1 to 10 nM. Then `Cc1ccc(Nc2nc(N[C@H](Cc3cccc(F)c3)C(N)=O)nnc2C(N)=O)cc1` [Example 190, (R)-3-(1-amino-3-(3-fluorophenyl)-1-oxopropan-2-ylamino)-5-(p-tolylamino)-1,2,4-triazine-6-carboxamide], with 10 to 100 nM.
